Measured values published in patent US5939416A, “Benzo (5,6) cycloheptapyridine compounds useful as farnesyl protein transferase inhibitors” (Schering Corporation, priority 1997, dated 1999).

Legend:
[1] = biological target: farnesyl protein transferase (Homo sapiens, UniProt P49354+P49356); test: FPT IC50 (inhibition of farnesyl protein transferase, in vitro enzyme assay); type: biochemical
Description: (§1) FPT IC50 (inhibition of farnesyl protein transferase, in vitro enzyme assay), COS Cell IC50 (Cell-Based Assay), GGPT IC50 (inhibition of geranylgeranyl protein transferase, in vitro enzyme assay), Cell Mat Assay, and anti-tumor activity (in vivo anti-tumor studies) are determined by the assay procedures described in WO 95/10516.

COS Cell = COS Cell IC50 (Cell-Based Assay)
Description: as §1

Row | IC50 [1] | Compound | IC50 (COS Cell)
1 | 1.8 nM | O=C1NC[C@@H](C(=O)N2CCC(CC(=O)N3CCC([C@H]4c5ncc(Br)cc5CCc5cc(Cl)cc(Br)c54)CC3)CC2)N1 [Example 4] | 33 nM
2 | 3.98 nM | O=C1NCC(CC(=O)N2CCC(C3c4ncc(Br)cc4CCc4cc(Cl)cc(Br)c43)CC2)CO1 (centres unmarked) [Example 2, 4-(3,10-Dibromo-8-chloro-6,11-dihydro-5H-benzo[5,6]cyclohepta[1,2-b]pyridin-11-yl)-1-[(tetrahydro-2-oxo-2H-1,3-oxazin-5-yl)acetyl]piperidine] | 9 nM
3 | 15 nM | O=C1NCC(CC(=O)N2CCC(C3c4ncc(Br)cc4CCc4cc(Cl)cc(Cl)c43)CC2)CO1 (centres unmarked) [Example 1, 4-(3-Bromo-8,10-dichloro-6,11-dihydro-5H-benzo[5,6]cyclohepta[1,2-b]pyridin-11-yl)-1-[(tetrahydro-2-oxo-2H-1 3-oxazin-5-yl)acetyl]piperidine] | 50 nM
4 | 2.3 nM | O=C1N[C@H](C(=O)N2CCC(CC(=O)N3CCC([C@H]4c5ncc(Br)cc5CCc5cc(Cl)cc(Br)c54)CC3)CC2)CO1 [Example 3] | 7 nM
